Patent publication US9023788B2, “Methods compounds and pharmaceutical compositions for treating anxiety and mood disorders” (New York University, priority 2010, dated 2015)

Legend:
brain α-adrenoceptors = conditions: cited from earlier work
Swiss Webster male mice [1] = assay: Repeated open space forced swim (RFS) test; conditions: for immobility or distance swum versus vehicle, panel of currently available antidepressants: single acute i.p. dose 15 min prior, FIG. 14
LC α1-adrenoceptors [2] = assay: Novel cage test after LC microinjection; type: in vivo, rat
[3] = in vivo; cited from earlier work
Swiss Webster male mice [4] = assay: Open field motor activity and anxiety (i.p. dp6FNE/prazosin); type: in vivo, mouse; conditions: 1 h; dp6FNE 0.1-3 mg/kg/prazosin; amphetamine 2 mg/kg i.p.
Method: For purposes of comparison, some animals received instead d-amphetamine, 2 mg/kg, i.p. Total quadrants entered and time in the center area of the field as a ratio to the total distance traveled were rated from videorecordings.

rats = conditions: cited from earlier work; for antidepressant effect after intracerebral administration: intracerebral infusion/injection
LC α1-adrenoceptors [5] = assay: Home cage test after LC microinjection; type: in vivo, rat
Method: The animal was brought into the laboratory in its home cage and habituated in this cage beneath the video camera for 3 h prior to being injected. […] Food and water remained on the cage during the test. The longer interval (30 min) was used in the home vs. novel cage test because a low baseline activity was desired, and it was necessary to allow time for the disturbance caused by handling the animal to subside. As in the novel cage test, the home cage tests were repeated for a total of 2-3 tests at weekly intervals with different doses of the agonist. All experiments were carried out between 1100 and 1400 h. Following the last behavioral test, the animals were anesthetized with Nembutal and infused bilaterally with 250 nl of 2% methylene blue. Frozen (unfixed) brain sections were stained with cresyl violet for histological localization of cannula placement.
Videotapes were rated blind for gross movements (GMs), crosses of the cage midline (cage Xs), rearing responses, and time immobile (TI) by a trained observer. […] This included walks to a wall, rears, turns in place, and stretch and attend responses.
Animals showing significant dye penetration of the 4th ventricle were excluded from the study. Comparisons between two drug conditions in the novel cage experiment were evaluated by Bonferronicorrected dependent t-tests.

[6] = dpEPI 1 mg/kg i.p. in vehicle with prazosin 0.2 mg/kg + propranolol 0.5 mg/kg, 15 min prior

SMILES: CNC[C@H](O)c1ccc(O)c(O)c1 [EPI, epinephrine]
- agonist efficacy (brain α-adrenoceptors): full agonist

SMILES: CC(NC(C)(C)C)C(=O)c1cccc(Cl)c1 (stereo not drawn) [bupropion]
- immobility or distance swum versus vehicle, panel of currently available antidepressants (Swiss Webster male mice [1]): dp6FNE/prazosin (1 mg/kg) was the only agent that either significantly reduced immobility

SMILES: CCN(CCCl)Cc1ccccc1Br [DSP4]
- effect of pretreatment on behavioral effects of LC terazosin (novel cage) and PE (home cage) (LC α1-adrenoceptors [2]; DSP4 10 days before test): markedly attenuated the behavioral effects
- effect of pretreatment alone on exploratory activity (LC α1-adrenoceptors [2]; DSP4 10 days before test, novel or home cages): had no effect on exploratory activity

SMILES: Cc1ccc(N(CC2=NCCN2)c2cccc(O)c2)cc1 [Phentolamine, phentolamine]
- passage of the blood brain barrier / uptake by the brain [3]: not taken up by the brain

SMILES: C[C@H](N)Cc1ccccc1 [amphetamine, d-amphetamine]
- motor activity (quadrants entered) (Swiss Webster male mice [4]): highly significant increase on locomotion
- relative time in the center of the field (Swiss Webster male mice [4]): significantly tended to reduce it

SMILES: Clc1cccc(Cl)c1N=C1NCCN1 [clonidine]
- antidepressant effect after intracerebral administration (rats): rapid antidepressant effects
- immobility or distance swum versus vehicle, panel of currently available antidepressants (Swiss Webster male mice [1]): dp6FNE/prazosin (1 mg/kg) was the only agent that either significantly reduced immobility

SMILES: CNC[C@H](O)c1cccc(O)c1 [PE, phenylephrine]
- anti-immobility effect after systemic administration (rats; 16 mg/kg, i.p.): only at a near lethal dose
- antidepressant effect after intracerebral administration (rats): produced antidepressant effects in the forced swim test
- reversal of terazosin-induced inactivity (GMs, cage Xs, TI) (LC α1-adrenoceptors [2]; PE 10 nmoles/side coinjected with terazosin 3 nmoles/side in LC, 5 rats): completely reverse the terazosin-induced inactivity
- GMs and cage Xs, dose-response (LC α1-adrenoceptors [5]; PE 0, 0.03, 0.1, 0.3, 1 nmole/side in LC, 30 min): small dose-dependent increases
- TI (LC α1-adrenoceptors [5]; PE 1.0 nmole/side in LC, home cage, 0-15 min): 0.98 ± 0.98 min
- GMS (LC α1-adrenoceptors [5]; PE 1.0 nmole/side in LC, home cage, 0-15 min, five rats): 195.2 ± 25.3
- % Rears (LC α1-adrenoceptors [5]; Rears as % of GM, PE 1.0 nmole/side in LC, home cage, 0-15 min): 33.5 ± 8.0%
- % Xs (LC α1-adrenoceptors [5]; Xs as % of GM, PE 1.0 nmole/side in LC, home cage, 0-15 min): 12.3 ± 2.0%

SMILES: CNCCC(Oc1ccc(C(F)(F)F)cc1)c1ccccc1 (stereo not drawn) [fluoxetine]
- immobility or distance swum versus vehicle, panel of currently available antidepressants (Swiss Webster male mice [1]): dp6FNE/prazosin (1 mg/kg) was the only agent that either significantly reduced immobility

SMILES: CNCC(O)c1ccc(OC(=O)C(C)(C)C)c(OC(=O)C(C)(C)C)c1 (stereo not drawn) [dpEPI, dipivalyl-epinephrine]
- distance swum versus vehicle (Swiss Webster male mice [1]; [6]): increase in distance swum
- immobility versus vehicle (Swiss Webster male mice [1]; [6]): significant reduction in immobility

SMILES: CNC1(c2ccccc2Cl)CCCCC1=O (stereo not drawn) [ketamine]
- immobility or distance swum versus vehicle, panel of currently available antidepressants (Swiss Webster male mice [1]): dp6FNE/prazosin (1 mg/kg) was the only agent that either significantly reduced immobility
